In article PMC11191687 one finds ring closure, yield over several steps and ring closure, conversion by HPLC data, which are given here for ten molecules.

Series [1] in a line: as series B (acyl azide from hydrazide, MeCN cosolvent), isolated after prep HPLC. Particulars: the molecule shown is the open-chain precursor, aq phosphate buffer (6 M GdmCl) diluted with 2 vol 50% MeCN/water, 4.0 mM, 2 steps.
Series [2] is described as follows: as series A (acyl azide from hydrazide, biphasic EtOAc/buffer), isolated after prep HPLC. Conditions: 21-membered ring, aq phosphate buffer (6 M GdmCl) / EtOAc biphasic, 3.0 mM, 0.25 h, 2 steps.
Series [3] in a line: head-to-tail lactamisation of unprotected peptide acyl azide (from C-terminal hydrazide, 20 equiv NaNO2, pH 3, -15 C, then NaHCO3 to pH ~7), biphasic EtOAc/buffer. Conditions: 21-membered ring, aq phosphate buffer (6 M GdmCl, 50 mM NaH2PO4, 1.5 mM EDTA) / EtOAc biphasic, 3.0 mM, 0.25 h, 2 steps.
The mark [4] stands for this setting: from CC(C)C[C@H](NC(=O)[C@H](CC(C)C)N(C)C(=O)[C@H](C)NC(=O)[C@H](Cc1ccc(O)c([N+](=O)[O-])c1)NC(=O)[C@H](CC(C)C)N(C)C(=O)[C@@H](N)Cc1c[nH]c2ccccc12)C(=O)N[C@@H](C)C(=O)N=[N+]=[N-].
Setting [5] is: from C=CC[C@H](NC(=O)[C@H](CC(C)C)NC(=O)[C@H](CC(C)C)N(C)C(=O)[C@H](CO)NC(=O)[C@H](Cc1ccc(O)c([N+](=O)[O-])c1)NC(=O)[C@H](CC(C)C)N(C)C(=O)[C@@H](N)Cc1c[nH]c2ccccc12)C(=O)N=[N+]=[N-].
[6] abbreviates: from C=CC[C@H](NC(=O)[C@H](CC(C)C)NC(=O)[C@H](CC(C)C)N(C)C(=O)[C@@H](NC(=O)[C@H](Cc1ccc(O)c([N+](=O)[O-])c1)NC(=O)[C@H](CC(C)C)N(C)C(=O)[C@@H](N)Cc1c[nH]c2ccccc12)[C@@H](C)O)C(=O)N=[N+]=[N-].

Take `CCCCC(C)CCC(=O)N[C@@H](CCN)C(=O)N[C@H](C(=O)N[C@@H](CCN)C(=O)N[C@@H](CCN)C(=O)N[C@@H](CCN)C(=O)N[C@H](CC(C)C)C(=O)N[C@@H](CC(C)C)C(=O)N[C@@H](CCN)C(=O)N[C@@H](CCN)C(=O)N[C@H](C(=O)N=[N+]=[N-])[C@@H](C)O)[C@@H](C)O` (stereo partly shown): the ring closure, yield over several steps in series [1] (23-membered ring) was 3%.

In the case of `CC(=O)N[C@@H](Cc1ccccc1)C(=O)N[C@@H](CCCN)C(=O)N1CCC[C@H]1C(=O)N[C@H](Cc1ccc(O)cc1)C(=O)N[C@@H](Cc1c[nH]c2ccccc12)C(=O)N[C@@H](CCCNC(=N)N)C(=O)N=[N+]=[N-]` [Ac-Phe-Orn(cyclises via side chain)-Pro-D-Tyr-Trp-Arg-N3], the ring closure, yield over several steps in series [1] (18-membered ring) was determined as 62%.

Turning to `CC(C)C[C@H](NC(=O)[C@H](CCCN)NC(=O)[C@@H](NC(=O)[C@H](Cc1ccc(O)cc1)NC(=O)[C@H](CCC(N)=O)NC(=O)[C@H](CC(N)=O)NC(=O)[C@@H](Cc1ccccc1)NC(=O)[C@H](Cc1ccccc1)NC(=O)[C@@H]1CCCN1C(=O)[C@H](N)Cc1ccccc1)C(C)C)C(=O)N=[N+]=[N-]` [H-D-Phe-Pro-Phe-D-Phe-Asn-Gln-Tyr-Val-Orn-Leu-N3], in series [1] (30-membered ring, 0.25 h), the ring closure, yield over several steps was found to be 68%. In the case of `CC(C)C[C@H](NC(=O)[C@H](CCCN)NC(=O)[C@@H](NC(=O)[C@@H]1CCCN1C(=O)[C@@H](Cc1ccccc1)NC(=O)[C@H](CC(C)C)NC(=O)[C@H](CCCN)NC(=O)[C@@H](NC(=O)[C@@H]1CCCN1C(=O)[C@H](N)Cc1ccccc1)C(C)C)C(C)C)C(=O)N=[N+]=[N-]` [H-D-Phe-Pro-Val-Orn-Leu-D-Phe-Pro-Val-Orn-Leu-N3], the ring closure, yield over several steps in series [1] (30-membered ring) came out at 63%. In turn, `CC(C)C[C@H](NC(=O)[C@H](Cc1ccc(O)cc1)NC(=O)[C@@H]1CCCN1C(=O)CN)C(=O)N[C@@H](C)C(=O)N=[N+]=[N-]` [H-Gly-Pro-Tyr-Leu-Ala-N3] gave a ring closure, yield over several steps in series [1] (15-membered ring) of 51%.

With `CSCC[C@H](NC(=O)[C@@H](NC(=O)[C@H](CC(C)C)NC(=O)CNC(=O)[C@@H]1CCCN1C(=O)[C@@H](NC(=O)CNC(=O)[C@@H](N)Cc1ccccc1)C(C)C)C(C)C)C(=O)N=[N+]=[N-]` [H-Phe-Gly-Val-Pro-Gly-Leu-Val-Met-N3], in series [1] (24-membered ring), the ring closure, yield over several steps is 12%. `CC[C@H](C)[C@H](NC(=O)CNC(=O)[C@H](CO)NC(=O)[C@@H]1CCCN1C(=O)[C@@H](NC(=O)[C@@H]1CCCN1)C(C)C)C(=O)N[C@@H](Cc1ccccc1)C(=O)NCC(=O)N=[N+]=[N-]` [H-Pro-Val-Pro-Ser-Gly-Ile-Phe-Gly-N3] yielded a ring closure, yield over several steps in series [1] (24-membered ring) of 42%. The molecule `CC(C)C[C@@H]1NC(=O)[C@H](CC(C)C)N(C)C(=O)[C@H](C)NC(=O)[C@H](Cc2ccc(O)c([N+](=O)[O-])c2)NC(=O)[C@H](CC(C)C)N(C)C(=O)[C@H](Cc2c[nH]c3ccccc23)NC(=O)[C@H](C)NC1=O` [H-Trp-N-Me-Leu-Tyr(3-NO2)-Ala-N-Me-Leu-Leu-Ala-N3] returned a ring closure, yield over several steps in series [2] (setting [4]) of 52%. Also, the ring closure, conversion by HPLC in series [3] (setting [4]) is 87%. Molecule `C=CC[C@@H]1NC(=O)[C@H](CC(C)C)NC(=O)[C@H](CC(C)C)N(C)C(=O)[C@H](CO)NC(=O)[C@H](Cc2ccc(O)c([N+](=O)[O-])c2)NC(=O)[C@H](CC(C)C)N(C)C(=O)[C@H](Cc2c[nH]c3ccccc23)NC1=O` [H-Trp-N-Me-Leu-Tyr(3-NO2)-Ser-N-Me-Leu-Leu-allylGly-N3] displayed a ring closure, yield over several steps in series [2] (setting [5]) of 42%. For the same molecule, the ring closure, conversion by HPLC in series [3] (setting [5]) came to 84%. `C=CC[C@@H]1NC(=O)[C@H](CC(C)C)NC(=O)[C@H](CC(C)C)N(C)C(=O)[C@H]([C@@H](C)O)NC(=O)[C@H](Cc2ccc(O)c([N+](=O)[O-])c2)NC(=O)[C@H](CC(C)C)N(C)C(=O)[C@H](Cc2c[nH]c3ccccc23)NC1=O` [H-Trp-N-Me-Leu-Tyr(3-NO2)-Thr-N-Me-Leu-Leu-allylGly-N3]: in series [2] (setting [6]), the ring closure, yield over several steps came to 35%. Further, in series [3] (setting [6]), the ring closure, conversion by HPLC came to 78%.
